# Results as given in patent publication US10457687B2, “Aminoacid derivatives, a process for their preparation and pharmaceutical compositions containing them” (LES LABORATOIRES SERVIER, priority 2015, dated 2019).
# Assays:
# [1] = molecular target: Mcl-1 protein (Homo sapiens, UniProt Q07820); assay: Inhibition of Mcl-1 by the fluorescence polarisation technique (Method 1 or Method 2); format: binding; conditions: fluorescence polarisation, Fluorescein labelled ligand; Method 1 (not underlined) or Method 2 (underlined); read-out: IC50 (μM) Mcl-1 FP
# How it was run: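 Fluorescence polarisation competition of 11-point compound dilutions (5% DMSO final) against fluorescein-labelled ligand for Mcl-1. Method 1: 1 nM ligand, 5 nM protein in 10 mM HEPES, 150 mM NaCl, 0.05% Tween 20, pH 7.4; Method 2: 10 nM ligand, 10 nM protein in 20 mM Na2HPO4, 1 mM EDTA, 50 mM NaCl, pH 7.4.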
# [2] = system: H929 multiple myeloma tumour line; assay: In vitro cytotoxicity, MTT assay, 48 hours; format: cell-based; conditions: H929 cells, 48 hours exposure, cell viability
# Method: The cytotoxicity studies were carried out on the H929 multiple myeloma tumour line.
# The cells are distributed onto microplates and exposed to the test compounds for 48 hours.
# [3] = system: cleaved form of PARP in AMO-1 tumour cells; assay: Quantification of the cleaved form of PARP in vivo (AMO-1 xenograft, MSD ELISA); set-up: species or system mice (SCID strain); conditions: activation factor: cleaved PARP in treated mice / control mice, SCID mice, intraveinous or oral routes
# Method: The ability of the compounds of the invention to induce apoptosis, by measuring cleaved PARP levels, is evaluated in a xenograft model of AMO-1 multiple myeloma cells. 1·10^7 AMO-1 cells are grafted sub-cutaneously into immunosuppressed mice (SCID strain). 12 to 14 days after the graft, the animals are treated by intraveinous or oral routes with the various compounds. After treatment, the tumour masses are recovered and lysed, and the cleaved form of PARP is quantified in the tumour lysates.
# The quantification is carried out using the “Meso Scale Discovery (MSD) ELISA platform” test, which specifically assays the cleaved form of PARP. It is expressed in the form of an activation factor corresponding to the ratio between the quantity of cleaved PARP in the treated mice divided by the quantity of cleaved PARP in the control mice.
# Chain of Mcl-1 protein (Q07820 whole entry): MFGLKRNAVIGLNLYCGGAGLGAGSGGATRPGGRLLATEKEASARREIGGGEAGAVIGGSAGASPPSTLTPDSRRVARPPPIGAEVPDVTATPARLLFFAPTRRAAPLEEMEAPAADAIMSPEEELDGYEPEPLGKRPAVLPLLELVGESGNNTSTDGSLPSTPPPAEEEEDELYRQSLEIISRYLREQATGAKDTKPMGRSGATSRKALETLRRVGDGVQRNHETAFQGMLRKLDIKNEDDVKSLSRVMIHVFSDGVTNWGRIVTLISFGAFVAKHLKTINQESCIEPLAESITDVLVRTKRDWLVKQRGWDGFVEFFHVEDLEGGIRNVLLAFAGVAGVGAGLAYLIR
Compound,IC50 [1],"IC50 ([2]; Homo sapiens, NCI-H929)",PARP fold [3],IC50 [2]
"COCCOc1ccccc1-c1nccc(COc2ccccc2CC(Nc2ncnc3sc(-c4ccc(F)cc4)c(-c4ccc(OCCN(C)C)c(Cl)c4C)c23)C(=O)O)n1 [Example 51, N-[(5Sa)-5-{3-chloro-4-[2-(dimethylamino)ethoxy]-2-methylphenyl}-6-(4-fluorophenyl)thieno[2,3-d]pyrimidin-4-yl]-2-({2-[2-(2-methoxyethoxy)phenyl]pyrimidin-4-yl}methoxy)-D-phenylalanine]",0.005 µM,23.3 nM,52.2,
"CC#Cc1sc2ncnc(N[C@H](Cc3ccccc3OCc3ccnc(-c4ccccc4OC)n3)C(=O)O)c2c1-c1ccc(OCCN(C)C)c(Cl)c1C [Example 49, N-[(5Sa)-5-{3-chloro-4-[2-(dimethylamino)ethoxy]-2-methylphenyl}-6-(prop-1-yn-1-yl)thieno[2,3-d]pyrimidin-4-yl]-2-{[2-(2-methoxyphenyl)pyrimidin-4-yl]methoxy}-D-phenylalanine]",0.003 µM,,138.8,4.12 nM
"CC#Cc1sc2ncnc(NC(Cc3ccccc3OCc3ccnc(N4CCOCC4)n3)C(=O)O)c2c1-c1ccc(OCCN2CCN(C)CC2)c(Cl)c1C [Example 43, N-[(5Sa)-5-{3-chloro-2-methyl-4-[2-(4-methylpiperazin-1-yl)ethoxy]phenyl}-6-(prop-1-yn-1-yl)thieno[2,3-d]pyrimidin-4-yl]-2-{[2-(morpholin-4-yl)pyrimidin-4-yl]methoxy}-D-phenylalanine]",0.006 µM,12.5 nM,114.6,
"CC#Cc1sc2ncnc(NC(Cc3ccccc3OCc3ccnn3C(C)(C)C)C(=O)O)c2c1-c1ccc(OCCN2CCN(C)CC2)c(Cl)c1C [Example 40, 2-[(1-tert-butyl-1H-pyrazol-5-yl)methoxy]-N-[(5Sa)-5-{3-chloro-2-methyl-4-[2-(4-methylpiperazin-1-yl)ethoxy]phenyl}-6-(prop-1-yn-1-yl)thieno[2,3-d]pyrimidin-4-yl]-D-phenylalanine]",0.006 µM,32.8 nM,114.3,

# Continued, in another order:
IC50 [1],Compound,"IC50 ([2]; Homo sapiens, NCI-H929)",PARP fold [3],IC50 [2]
1.07 µM,"CC#Cc1sc2ncnc(NC(Cc3ccccc3OCc3ccnc(-c4ccccc4OC)n3)C(=O)OCC)c2c1-c1ccc(OCCN2CCN(C)CC2)c(Cl)c1C [Example 258, ethyl N-[(5Sa)-5-{3-chloro-2-methyl-4-[2-(4-methylpiperazin-1-yl)ethoxy]phenyl}-6-(prop-1-yn-1-yl)thieno[2,3-d]pyrimidin-4-yl]-2-{[2-(2-methoxyphenyl)pyrimidin-4-yl]methoxy}-D-phenylalaninate]",428 nM,132.3,
0.002 µM,"CCOc1nccc(COc2ccccc2CC(Nc2ncnc3sc(-c4ccc(F)o4)c(-c4ccc(OCCN5CCN(C)CC5)c(Cl)c4C)c23)C(=O)O)n1 [Example 22, N-[(5Sa)-5-{3-chloro-2-methyl-4-[2-(4-methylpiperazin-1-yl)ethoxy]phenyl}-6-(5-fluorofuran-2-yl)thieno[2,3-d]pyrimidin-4-yl]-2-[(2-ethoxypyrimidin-4-yl)methoxy]-D-phenylalanine]",8.59 nM,222.2,
1.61 µM,"CCOC(=O)C(Cc1ccccc1OCc1ccnc(-c2ccccc2OC)n1)Nc1ncnc2sc(-c3ccc(F)cc3)c(-c3ccc(OCCN4CCN(C)CC4)c(Cl)c3C)c12 [Example 256, ethyl N-[(5Sa)-5-{3-chloro-2-methyl-4-[2-(4-methylpiperazin-1-yl)ethoxy]phenyl}-6-(4-fluorophenyl)thieno[2,3-d]pyrimidin-4-yl]-2-{[2-(2-methoxyphenyl)pyrimidin-4-yl]methoxy}-D-phenylalaninate]",> 600 nM,99.5,
0.007 µM,"CC#Cc1sc2ncnc(NC(Cc3ccccc3OCc3ccnc(OCC(F)(F)F)n3)C(=O)O)c2c1-c1ccc(OCCN2CCN(C)CC2)c(Cl)c1C [Example 44, N-[(5Sa)-5-{3-chloro-2-methyl-4-[2-(4-methylpiperazin-1-yl)ethoxy]phenyl}-6-(prop-1-yn-1-yl)thieno[2,3-d]pyrimidin-4-yl]-2-{[2-(2,2,2-trifluoroethoxy)pyrimidin-4-yl]methoxy}-D-phenylalanine]",3.44 nM,85.8,
1.35 µM,"CC#Cc1sc2ncnc(NC(Cc3ccccc3OCc3ccnc(-c4ccccc4OC)n3)C(=O)OCC)c2c1-c1ccc(OCCN(C)C)c(Cl)c1C [Example 259, ethyl N-[(5Sa)-5-{3-chloro-4-[2-(dimethylamino)ethoxy]-2-methylphenyl}-6-(prop-1-yn-1-yl)thieno[2,3-d]pyrimidin-4-yl]-2-{[2-(2-methoxyphenyl)pyrimidin-4-yl]methoxy}-D-phenylalaninate]",> 600 nM,134.4,
